Experimental findings from ChEMBL document CHEMBL1131500, “Novel biologically active nonpeptidic inhibitors of myristoylCoA:protein N-myristoyltransferase” (J Med Chem, 1998) are described below.

Assay [1] deals with Candida albicans. The experiment in a line: Compound was tested for the effective concentration against Candida albicans for 24 hr. The format is functional, organism-based.
Assay [2] concerns the target T1, Glycylpeptide N-tetradecanoyltransferase (Candida albicans (strain SC5314 / ATCC MYA-2876) (Yeast), UniProt P30418).
T1 sequence (P30418 whole entry): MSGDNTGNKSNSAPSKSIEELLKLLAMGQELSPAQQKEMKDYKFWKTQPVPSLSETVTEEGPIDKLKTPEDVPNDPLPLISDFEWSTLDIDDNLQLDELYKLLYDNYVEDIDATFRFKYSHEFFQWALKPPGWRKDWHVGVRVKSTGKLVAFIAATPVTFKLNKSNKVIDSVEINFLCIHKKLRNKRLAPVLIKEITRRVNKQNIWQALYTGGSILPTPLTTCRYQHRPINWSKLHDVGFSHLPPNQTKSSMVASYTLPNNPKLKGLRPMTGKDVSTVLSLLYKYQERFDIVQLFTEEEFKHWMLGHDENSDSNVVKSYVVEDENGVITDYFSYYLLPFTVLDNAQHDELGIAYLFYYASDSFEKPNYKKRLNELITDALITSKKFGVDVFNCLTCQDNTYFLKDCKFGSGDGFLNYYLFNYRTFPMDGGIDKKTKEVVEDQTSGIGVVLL
Nature of the assay: Compound was tested for the inhibition potency against Candida albicans N-myristoyltransferase (NMT) using peptide substrate GNAASARR-NH2 at its apparent Km and myristoylCoA at 1 uM.

For assay [3], the target named is T2, Peptide N-myristoyltransferase (Homo sapiens, UniProt P30419+O60551).
T2 sequence (P30419 whole entry): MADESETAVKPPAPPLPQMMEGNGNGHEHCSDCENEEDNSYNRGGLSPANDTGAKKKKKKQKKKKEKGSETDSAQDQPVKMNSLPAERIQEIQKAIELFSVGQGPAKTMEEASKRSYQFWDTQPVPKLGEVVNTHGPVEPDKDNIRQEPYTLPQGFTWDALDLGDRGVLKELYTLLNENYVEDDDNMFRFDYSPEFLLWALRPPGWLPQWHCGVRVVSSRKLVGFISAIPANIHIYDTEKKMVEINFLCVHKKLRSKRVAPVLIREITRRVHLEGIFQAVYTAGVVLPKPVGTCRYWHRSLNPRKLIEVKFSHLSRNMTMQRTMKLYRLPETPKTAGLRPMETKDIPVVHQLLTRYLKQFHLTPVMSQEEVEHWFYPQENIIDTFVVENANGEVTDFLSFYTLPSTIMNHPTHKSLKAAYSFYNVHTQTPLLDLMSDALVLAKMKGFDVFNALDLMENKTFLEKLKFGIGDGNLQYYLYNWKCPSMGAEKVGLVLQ
T2 sequence (O60551 whole entry): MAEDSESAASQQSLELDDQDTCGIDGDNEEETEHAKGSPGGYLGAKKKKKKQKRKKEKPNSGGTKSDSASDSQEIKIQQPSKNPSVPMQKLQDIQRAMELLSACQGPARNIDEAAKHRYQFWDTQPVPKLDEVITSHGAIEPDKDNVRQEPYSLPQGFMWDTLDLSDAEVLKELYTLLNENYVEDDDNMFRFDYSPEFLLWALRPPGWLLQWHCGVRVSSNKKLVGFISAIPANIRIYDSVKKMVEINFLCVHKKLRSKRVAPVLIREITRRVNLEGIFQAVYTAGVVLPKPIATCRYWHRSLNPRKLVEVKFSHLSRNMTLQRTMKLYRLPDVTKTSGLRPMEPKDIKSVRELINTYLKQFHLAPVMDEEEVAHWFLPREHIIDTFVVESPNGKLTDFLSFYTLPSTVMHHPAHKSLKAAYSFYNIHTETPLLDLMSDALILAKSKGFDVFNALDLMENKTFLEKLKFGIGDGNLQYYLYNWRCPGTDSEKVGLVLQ
The experiment in a line: Compound was tested for the inhibition potency against human N-myristoyltransferase (NMT) using peptide substrate GNAASARR-NH2 at its apparent Km and myristoylCoA at 1 uM. The format is protein assay.

In assay [4] the test system is Candida albicans. Nature of the assay: the fungicidal activity against Candida albicans was reported. The format is functional.
In assay [5] the test system is Candida albicans. The experiment in a line: compound was tested for the effective concentration against Candida albicans for 24 hr. It counts as functional, organism-based.
Assay [6] addresses T2, Peptide N-myristoyltransferase. Nature of the assay: compound was tested for the inhibition potency against human N-myristoyltransferase (NMT) using peptide substrate GNAASARR-NH2 at its apparent Km and myristoylCoA at 1 uM. The format is protein assay.
Assay [7] addresses T1, Glycylpeptide N-tetradecanoyltransferase. Nature of the assay: compound was tested for the inhibition potency against Candida albicans N-myristoyltransferase (NMT) using peptide substrate GNAASARR-NH2 at its apparent Km and myristoylCoA at 1 uM.
The target is the same in assay [8]. The experiment in a line: The Compound was tested for the inhibition potency against Candida albicans N-myristoyltransferase (NMT) and reported as apparent Ki.

pEC50, pIC50, pKi: −log10 of the molar value. Values after ≈ are worked out from the molar mass of the structure shown.

The pEC50 is −log10 of the EC50, conventionally taken in molar units. A higher pEC50 goes with a low EC50. As usually defined, the pIC50 is the negative decadic logarithm of the IC50, by convention in mol/L. The IC50 is the point on the concentration scale where inhibition reaches its midpoint. `Cc1nccn1CCCCc1ccc(CC(=O)N[C@H](CO)Cc2ccc(OCCC3CCCCC3)c(CCCN)c2)cc1` gave a pEC50 in assay [1] of 4.25. Further, the pIC50 in assay [2] is 4.53. Moreover, the IC50 in assay [3] turned out to be 62.3 µM.
A word on the MFC: it is the lowest tested concentration that kills the fungus rather than only halting it. `Cc1nccn1CCCCc1ccc(CC(=O)N[C@H](CO)Cc2ccc(OCCC3CCCCC3)c(CCCCN)c2)cc1` registered an MFC in assay [4] of 150 µM (≈ 90.4 µg/mL). Moreover, in assay [5], the pEC50 was 4.31. Moreover, the IC50 in assay [6] was found to be 64 µM. The pIC50 in assay [7] was 4.70.
The matching figures for `Cc1nccn1CCCCc1ccc(CC(=O)N[C@@H](CO)Cc2ccc(OCCC3CCCCC3)c(CCCN)c2)cc1`: 250 µM (≈ 147 µg/mL), 4.11, 6.5 µM and 4.76.
As usually defined, the pKi is the negative decadic logarithm of the Ki, by convention in mol/L. In the case of H-ALYASKLS-NH2, in assay [8], the pKi was 4.82.
